The assay relates to ERISU (Conyza sumatrensis, Sumatran fleabane). The assay is described as follows: Greenhouse post-emergence foliar weed control trial, visual injury score 0-100 percent. It is filed as in vivo. The note with it: 400 gai/ha. From the text: Results in Examples are greenhouse trial results.
Seeds or nutlets of the desired test plant species were planted in a soil matrix prepared by mixing a loam or sandy loam soil (e.g., 28.6 percent silt, 18.8 percent clay, and 52.6 percent sand, with a pH of about 5.8 and an organic matter content of about 1.8 percent) and calcareous grit in an 80 to 20 ratio. The soil matrix was contained in plastic pots with a volume of 1 quart and a surface area of 83.6 cm2. When required to ensure good germination and healthy plants, a fungicide treatment and/or other chemical or physical treatment was applied. The plants were grown for 8-22 days in a greenhouse with an approximate 14 h photoperiod which was maintained at about 29° C. during the day and 26° C. during the night. Nutrients (Peters Excel® 15-5-155-Ca 2-Mg and iron chelate) were applied in the irrigation solution as needed and water was added on a regular basis. Supplemental lighting was provided with overhead metal halide 1000-Watt lamps as necessary. The plants were employed for testing when they reached the first through fourth true leaf stage.
Treatments comprised of the acid or esters of halauxifen-methyl (methyl 4-amino-3-chloro-6-(4-chloro-2-fluoro-3-methoxyphenyl)picolinate), each formulated as an SC (suspension concentrate), and various herbicidal components alone and in combination. A form of the compound of Formula I were applied on an acid equivalent basis.
Treatment requirements were calculated based upon the rates being tested, the concentration of active ingredient or acid equivalent in the formulation, and a 12 mL application volume at a rate of 187 L/ha.
For treatments comprised of formulated and technical compounds, weighed amounts of the technical materials were placed individually in 25 mL glass vials and dissolved in a volume of 97:3 v/v acetone/DMSO to obtain 12× stock solutions, and measured amounts of the formulated compounds were placed individually in 25 mL glass vials and diluted in a volume of 1.5% (v/v) crop oil concentrate or water to obtain 12× stock solutions. […] As required, additional water and/or 97:3 v/v acetone/DMSO was added to individual application solutions so that the final acetone and DMSO concentrations of the application solutions being compared were 8.1% and 0.25%, respectively.
All stock solutions and applications solutions were visually inspected for compound compatibility prior to application. Spray solutions were applied to the plant material with an overhead Mandel track sprayer equipped with an 8002E nozzle calibrated to deliver 187 L/ha over an application area of 0.503 m2 at a spray height of 18 to 20 inches (46 to 50 cm) above average plant canopy height. Control plants were sprayed in the same manner with the solvent blank.
The treated plants and control plants were placed in a greenhouse as described above and watered by sub-irrigation to prevent wash-off of the test compounds. […]
Table 1 illustrates weed control for foliar applications of compositions comprising halauxifen-methyl+2,4-D-dimethylammonium (2,4-D-DMA)+paraquat on various broadleaf weeds. […] The compositions disclosed herein can be used in burndown and fallow crop applications or in herbicide tolerant crops. These compositions can be used for broad-spectrum control of broadleaf weeds including, but not limited to, ALS, auxinic, HPPD, PPO, glufosinate and glyphosate resistant broadleaf weeds. The compositions disclosed herein can have utility in AAD1 and AAD12 monocot and dicot crops whereby there is crop tolerance to all 3 modes of action, providing growers with a solution to control susceptible and resistant broadleaf weeds, as well as to delay the development of resistance by the use of 3 modes of action product. The compositions disclosed herein can be used in non-crop and R&P/IVM situations, post directed in perennial crops, and potentially across many crops where there is tolerance to all 3 modes of action.

These results are taken from patent publication US20220015362A1, “COMPOSITIONS COMPRISING HALAUXIFEN AND OTHER HERBICIDES AND METHODS THEREOF” (DOW AGROSCIENCES LLC, priority 2018, published 2022).

In the case of `C[n+]1ccc(-c2cc[n+](C)cc2)cc1` [paraquat, 1-methyl-4-(1-methylpyridin-1-ium-4-yl)pyridin-1-ium], the “Chem 2 Actual Mean % Weed Control” value is reported as 32.50% (Trial 1, 17DAA); 52.50% (Trial 1, 28DAA); 60.00% (Trial 1, 43DAA); 52.50% (Trial 2, 17DAA); 55.00% (Trial 2, 28DAA); 65.00% (Trial 2, 43DAA).
